Patent US8802630B2, “Method of treating brain injury” (Buddhist Tzu Chi General Hospital, priority 2011, dated 2014)
Where no end group is shown, it is not given here.

What was measured:
[1] = test system: collagenase-induced ICH rats; test: Assessment of brain edema (brain water content, wet/dry method); type: in vivo; conditions: day 3 post-ICH
Text: Brain edema formation peaks on day 3 post-ICH (Xue et al., 2000; Yang et al., 1994). […] Rats were randomly used in the assessment of brain water content by using a common wet/dry method as previously described (Chu et al., 2004). Briefly, 3 days post-ICH, rats were anesthetized and decapitated. The brains were removed and separated into contralateral, ipsilateral hemispheres and cerebellum. The cerebellum was used as an internal control. Sample was weighed to obtain the wet weight immediately, and then dried in an oven at 100° C. for 24 hours to obtain the dry weight. The water content was expressed as a percentage of the wet weight: [(wet weight)−(dry weight)](wet weight)^−1×100%.

NeuN+ cells (neurons) = test: Immunohistochemistry of neuronal loss (NeuN); type: in vivo, rats; conditions: perihematomal region; L-UCN 2.5 μg/kg i.p.; day 3 post-ICH
Method: Rats were used in immunohistochemistry on day 3 post-ICH. Rats were anesthetized as described above and transcardially perfused with cold 0.1 M phosphate buffer saline followed by cold 4% paraformaldehyde in 0.1 M phosphate-buffered saline. Brains were removed and immersed in 4% paraformaldehyde for 24 hours and 30% sucrose for another 24 hours. Coronal brain sections (20 μm thickness) were cut and collected from 0.0 to −2.0 mm AP to bregma using a cryostat (Leica CM 1900). Three 20 μm coronal sections, representing the core of the hematoma, were taken starting at 0.0 mm from bregma (the needle entry site). Additional adjacent serial coronal sections taken through the center of the hemorrhagic lesion were processed for the counting of marker-specific cells (Jung et al., 2004). Antibodies of OX-42 (1:100; BD, USA), ED-1 (1:100; BD, USA) were used as microglial markers, and NeuN (1:200, Chemicon, USA) was used as neuron marker. Tissues sections were incubated with the primary antibodies overnight at 4° C. […] The numbers of positive cells in the same focal plane were counted in 6 regions of interest around the ipsilateral striatum (perihematomal region, 1 mm^2) All cell counting was done by an independent investigator counted the positive cells.

IL-1β = test: Cytokine ELISA of ipsilateral striatal tissue; type: in vivo, rats; conditions: L-UCN 2.5 μg/kg i.p.; days 1, 3 and 7 post-ICH; vs ICH+Saline
Method: (§1) Rats were used for the cytokine assay by ELISA. The ipsilateral striatal tissues were collected before and on days 1, 3 and 7 days post-ICH. After homogenization in the lysis buffer (PRO-PREP™, iNtRON Biotechnology, Korea) and centrifuged at 12,000 g for 30 minutes, the supernatants were collected and stored frozen at −80° C. During quantification, the cytokines (TNFα, IL-1β and IL-6) were normalized to 100 μg of proteins in the supernatant using a commercial ELISA kit from R & D Systems (Minneapolis, Minn., USA) according to the manufacturer's instructions.

TNF-α = test: Cytokine ELISA of ipsilateral striatal tissue; type: in vivo, rats; conditions: L-UCN 2.5 μg/kg i.p.; days 1, 3 and 7 post-ICH; vs ICH+Saline
Method: as §1

IL-6 = test: Cytokine ELISA of ipsilateral striatal tissue; type: in vivo, rats; conditions: L-UCN 2.5 μg/kg i.p.; day 1 post-ICH; vs ICH+Saline
Method: as §1

[2] = Cerebral blood flow after bolus injection of UCN; type: in vivo; conditions: UCN 25 μg/kg body weight
[3] = test system: autologous blood infusion-induced ICH rats; test: modified Neurological Severity Score (mNSS), autologous blood infusion ICH model; type: in vivo
Method: The ICH refers to hemorrhage in the striatum, a part of the brain. Male Sprague-Dawley rats (250-300 g) anesthetized with chloral hydrate (0.4 g kg^−1 i.p., Sigma-Aldrich, St. Louis, Mo., USA). The blood infusion model of ICH was induced by intrastriatal (0.0 mm posterior, 3.0 mm right, 5.0 mm ventral to bregma skull surface) infusion of autologous blood (100 μl within 1 minute) and stereotaxic administration of bacterial collagenase VII-S into the striatum (MacLellan et al. 2008; Rosenberg et al. 1990). Briefly, bacterial collagenase VII-S (0.23 U in 1.0 μl sterile saline, Sigma-Aldrich) was infused into the striatum over a period of 10 minutes. The needle was kept in place for another 10 minutes to prevent backflow. The craniotomies were sealed with bone wax. The rats were allowed to recover in separate cages at room temperature.
Rats were used in the assessment of the neurological abnormalities with a modified Neurological Severity Score (mNSS) method (Chen et al. 2001) by an investigator blinded to the experimental treatment scheme. The mNSS is a composite test of motor, sensory, and balance functions. The assessment was performed before and on 1, 3 and 7 days after the ICH. Neurological functions were graded on a scale of 0-18 (normal score, 0; maximal deficit score, 18).

[4] = test system: collagenase-induced ICH rats; test: Assessment of hemorrhagic volume (spectrophotometric assay); type: in vivo
Method: Rats were randomly used in assessment of hemorrhagic volume at 24 hours (day 1) post-ICH. The accumulated hemorrhagic volume was quantified by a spectrophotometric assay as reported by Park et al., with minor modification (Park et al., 2005). Briefly, both contralateral and ipsilateral hemispheres were obtained after transcardial perfusion. PBS was added to the individual hemispheres to make-up a total of 3 ml volume for homogenization and centrifugation (15000 g, 30 minutes). The supernatant (40 μl) was reacted with Drabkin's reagent (160 μl, Sigma) for 15 minutes at room temperature. Optical density was measured at 540 nm with a spectrophotometer (Molecular Devices OptiMax, USA). Equivalent hemorrhage volume (μl) of the supernatant was calculated from a standard curve obtained with known amounts of the blood.

## urocortin (DNPSLSIDLTFHLLRTLLELARTQSQRERAEQNRIIFDSV; ends and bridges not checked; UniProt P55089 83-122, looked up) [UCN, a 40-amino-acid endogenous neuropeptide, belongs to the corticotrophin releasing hormone (CRH) family]
[1]; cerebellum, L-UCN and H-UCN i.p., among groups
  brain water content: No significant differences
[1]; cerebellum, UCN 5 μg i.c.v., among groups
  brain water content: essentially not affected
[1]; contralateral hemisphere, H-UCN 25 μg/kg i.p.
  brain water content: 79.40±0.15%
[1]; contralateral hemisphere, L-UCN 2.5 μg/kg i.p.
  brain water content: 79.98±0.19%
[1]; contralateral hemisphere, UCN 5 μg i.c.v.
  brain water content: 80.08±0.08%
[1]; ipsilateral hemisphere, H-UCN 25 μg/kg i.p.
  brain water content: 79.94±0.66%
[1]; ipsilateral hemisphere, L-UCN 2.5 μg/kg i.p.
  brain water content: 80.60±0.17%
[1]; ipsilateral hemisphere, UCN 5 μg i.c.v.
  brain water content: 81.16±0.16%
NeuN+ cells (neurons)
  NeuN+ cells: 397.00±39.74 cells/6 mm^2
IL-1β
  IL-1β level of ipsilateral striatum: significantly reduced
TNF-α
  TNF-α level of ipsilateral striatum: significantly reduced
IL-6
  IL-6 level of ipsilateral striatum: reduced
[2]; bolus intraperitoneal injection
  reduction of the cerebral blood flow (CBF): 25%
[2]; bolus intravenous injection
  reduction of CBF: 40-45%
[3]; UCN 2.5 μg/kg i.p. 60 min after blood infusion ICH, vs ICH+Saline
  mNSS: greater reduction in mNSS
[3]; UCN 5 μg i.c.v. 1 h after blood infusion ICH, vs saline
  mNSS: greater reduction in mNSS
[4]; L-UCN 2.5 μg/kg i.p., day 1 post-ICH, vs ICH+Saline
  hemorrhagic volume: not significantly different
[4]; UCN 5 μg i.c.v., 24 h post-ICH, vs ICH+saline
  accumulated hemorrhagic volume: not significantly different
